Results published in patent US11459356B2, “Neuronal nicotinic acetylcholine receptor-targeting polypeptide and use thereof” (priority 2021, dated 2022).
Positions of bridges follow the written chain, without caps; N, C: chain ends. No end group written: not given here.

Test system: human nAChR
Experiment: Calcium response of nAChR-overexpressing CN21 cells pre-incubated with polypeptide
Assay type: cell-based
Conditions: CN21 cells expressing human nAChR; polypeptide 10^-11-10^-5 M; 6 hours incubation; FIG. 5
Method: The bioactivity of polypeptide nAChR_BP was assessed by using […] expressing human nAChR. The CN21 cells were incubated in 12-well plates one day prior. After 25 hours of incubation, the media were removed and new media containing various concentrations (10^−11-10^−5 M) of the polypeptide were added to incubate the cells. Six hours later, concentrations of calcium ion were measured using a kit, such that the activity of nAChR_BP was determined in vitro by assessing the antagonism of the nAChR mediated increase of [Ca2+] in CN21 cells.

nAChR_BP: novel polypeptide with amino acid sequence of SEQ ID NO: 1 that targets neuronal nicotinic acetylcholine receptor (ACCLFNCHSWVGC; disulfide 2-13, 3-7)
antagonism of the nAChR mediated increase of [Ca2+] in CN21 cells: capable of significantly inhibiting nAChRs
